We go through 28 molecules from US20180264094A1, “PERSONALISED IMMUNOGENIC PEPTIDE IDENTIFICATION PLATFORM” (priority 2017, published 2018).

Entries after “also recorded” stand apart in the source; their conditions may differ. Where no end group is shown, it is not given here.

One data set deals with T cell responses. The conditions noted are these: percentage of study subjects with positive T cell responses measured in the clinical trials; cited from earlier work.
The conditions of data set [1]: in vivo; cited from earlier work.
The test system of another data set is EGFRvIII. The conditions noted are these: cited from earlier work.
The test system of data set [2] is glioblastoma multiforme (GBM). The conditions noted are these: cited from earlier work.
The subject of data set [3] is metastatic ovarian adenocarcinoma. Kind of data set: MRI of tumor lesions of patient treated with PIT vaccine (Table 28). In kind it is in vivo, human. The conditions noted are these: before PIT vaccine. An excerpt:
• Disease was confined primarily to liver and lymph nodes. The use of MRI limits detection of lung (pulmonary) metastasis • May 2016-January 2017: Olaparib treatment • Dec. 25, 2016 (before PIT vaccine treatment) There was dramatic reduction in tumor burden with confirmation of response obtained at FU2 • January-March 2017—TOPO protocol (topoisomerase) • Apr. […] 21 2017 START PIT • Jul. […] 26, 2017—CBP+Gem+Avastin • Sep.

For data set [4] the following is noted: cited from earlier work.
In data set [5] the test system is Vaccine antigen specific CTL responses. The conditions noted are these: published immune response rate (CTL) of the clinical study population; cited from earlier work.
The conditions of data set [6]: published Disease Control Rate (ORR where no DCR data), RECIST; cited from earlier work.

With “RYRKPDYTLDDGHGLLRFKST (additional peptide 5) [21 mer peptide vaccine, source antigen Abl-2]”, in the data set on T cell responses, the “Response rate (Clinical Trials)” value is 17%.
Consider “MTPGTQSPFFLLLLLTVLTVV (additional peptide 10)”, for which the “Response rate (Clinical Trials)” value with T cell responses is recorded as 90%.
With OKT3, the ADA-related adverse event result in data set [1] is recorded as “anaphylaxis”.
“LEEKKGNYVVTDHC (also: conjugated to KLH) [Rindopepimut, 13-amino-acid peptide vaccine spanning the EGFRvIII mutation with additional C-terminal cysteine]”: the Responders in the data set on EGFRvIII (Clinical trial (Phase II), cellular immune response by DTH reaction test, EGFRvIII-expressing GBM patients) is 3/18. The Response rate in the data set with EGFRvIII (Clinical trial (Phase II), cellular immune response by DTH reaction test) is on record as 16.6%. Moreover, the “patients developing cellular immune response assessed by DTH reaction test” value with EGFRvIII (phase II, peptide conjugated to KLH, intradermal, newly diagnosed EGFRvIII-expressing GBM) is on record as 3 out of 18. Besides, in data set [2] (Rindopepimut group versus control group, 95% CI 0.79-1.30), the “HR (overall survival)” value is given as 1.01. Moreover, the median overall survival in data set [2] (phase III, Rindopepimut and temozolomide (n=371)) was 20.1 months.
Regarding `O=C(c1cc(Cc2n[nH]c(=O)c3ccccc23)ccc1F)N1CCN(C(=O)C2CC2)CC1` [Olaparib], the “Lesion response (% Δ from BL)” value in data set [3] (SUM of target lesions, FU1, during Olaparib treatment) is recorded as −66.3%; in data set [3] (SUM, FU2, Olaparib treatment), −76.0%; in data set [3] (TL1, FU1, patient, MRI, during Olaparib treatment) it was −56.1%; in data set [3] (TL1, FU2 (Dec. 25, 2016), Olaparib treatment) it was −44.4%; in data set [3] (TL2, FU1, during Olaparib treatment), −100.0%; in data set [3] (TL2, FU2, Olaparib treatment), −100.0%. Further, the “Lesion response (% Δ from BL)” value in data set [3] (TL3, FU1, during Olaparib treatment) is reported as −59.4%; in data set [3] (TL3, FU2, Olaparib treatment), −62.3%; in data set [3] (TL4, FU1, during Olaparib treatment) it was −65.8%; in data set [3] (TL4, FU2, Olaparib treatment), −100.0%.
For “SSKALQRPV (additional peptide 11) [9 mer peptide vaccine, source antigen Bcr-Abl]”, the “Response rate (Clinical Trials)” value in the data set with T cell responses is reported as 0%.
Regarding Factor-IX, the ADA-related adverse event entry in data set [1] is reported as “anaphylaxis”.
In the case of “LKKGAADGGKLDGNAKLNRSLK (additional peptide 3) [22 mer peptide vaccine, source antigen BAP31]”, in the data set with T cell responses, the “Response rate (Clinical Trials)” value is on record as 11%.
For the molecule Thrombopoietin [TPO], the “most immunogenic region by State of Art class II HLA restricted epitope identification” value in data set [4] (EpiVax/Genentech, US20040209324 A1) is “C-terminal end of TPO”. Further, the “immunotoxic region, experimental proof in published literature” value in data set [4] (in vivo) was “N-terminal end of TPO”. Also, the “immunogenicity / anti-drug antibodies (ADA)” value in data set [4] (patients treated with TPO drug) is “highly immunogenic protein drug causing toxicity in many patients; also recorded: Most individuals treated with TPO drug made anti-drug antibodies (ADA)”. Moreover, the ADA-related adverse event entry in data set [1] is reported as “thrombocitopenia”.
For the molecule recombinant factor VIII, in data set [1], the ADA-related adverse event entry is reported as “anaphylaxis”.
On to Epoetin, for which, in data set [1], the ADA-related adverse event result was “Antibody-mediated pure red cell aplasia”.
For Adalimumab, the ADA-related adverse event result in data set [1] is “anti-drug antibodies and treatment failure”.
In the case of Basiliximab, the ADA-related adverse event entry in data set [1] was “anaphylaxis”.
Regarding Pegloticase, the ADA-related adverse event result in data set [1] is given as “anti-dug antibody, treatment failure”.
As to Abciximab, the ADA-related adverse event entry in data set [1] is on record as “anaphylaxis”.
As to Infliximab, the ADA-related adverse event result in data set [1] is “anaphylaxis”.
“GRGSTTTNYLLDRDDYRNTSD (additional peptide 2) [21 mer peptide vaccine, source antigen ADA17]”: in the data set on T cell responses, the “Response rate (Clinical Trials)” value is 11%.
For the molecule “QRPPFSQLHRFLADALNT (additional peptide 6) [18 mer peptide vaccine, source antigen DDR1]”, the “Response rate (Clinical Trials)” value in the data set on T cell responses is 17%.
Take `CC[C@@]1(O)C(=O)OCc2c1cc1n(c2=O)Cc2cc3c(CN(C)C)c(O)ccc3nc2-1` [Hycamtin]: the “Lesion response (% Δ from BL)” value in data set [3] (SUM, FU3, after TOPO protocol) was −68.9%; in data set [3] (TL1, FU3 (Apr. 6, 2017), after TOPO protocol), −44.8%; in data set [3] (TL2, FU3, after TOPO protocol), −47.1%; in data set [3] (TL3, FU3, after TOPO protocol) it was −62.0%; in data set [3] (TL4, FU3, after TOPO protocol) it was −100.0%.
Regarding “ALDQCKTSCALMQQHYDQTSCFSSP (additional peptide 7) [25 mer peptide vaccine, source antigen ITGB8]”, in the data set with T cell responses, the “Response rate (Clinical Trials)” value is 28%.
With Ipilimumab, the “Clinical Trial Response Rate” value in data set [5] is recorded as 72%. The DCR in data set [6] is 60%.
With “MMNLMQPKTQQTYTYD (additional peptide 1) [16 mer peptide vaccine, source antigen JUP]”, in the data set on T cell responses, the “Response rate (Clinical Trials)” value was 0%.
Consider Erythropoietin, for which, in data set [1], the ADA-related adverse event result is “pure red cell aplasia”.
Take Etanercept: the ADA-related adverse event result in data set [1] was “no apparent effect on safety”.
As to YLEPGPVTA, in the data set with T cell responses, the “Response rate (Clinical Trials)” value is recorded as 28%.
“ImMucin: anti-MUC1 signal peptide vaccine, ref 15; likely the 21 mer MTPGTQSPFFLLLLLTVLTVV”: the “Clinical Trial Response Rate” value in data set [5] is 90%. In addition, the DCR in data set [6] is on record as 73%.
As for “FPPKDDHTLKFLYDDNQRPYPP (additional peptide 4) [22 mer peptide vaccine, source antigen TOP2A]”, the “Response rate (Clinical Trials)” value with T cell responses is recorded as 11%.
With Ustekinumab, in data set [1], the ADA-related adverse event entry is “anti-ustekinumab antibodies, affected”.
